Several values for one entry are separate records, joined by “and”; a condition that tells them apart may be missing. Identical values can stand only once. Inconclusive results and toxic doses are left out. Rule for the calls: active = survival T/C of 150% or more; inactive = T/C below 125% in these data. Square brackets hold non-standard residues; d marks the D form. Peptide text beside a SMILES is read from it. * marks the point of attachment. ξ: configuration not given here. Cbz = O=C(OCc1ccccc1)*; ξV = CC(C)C(N)C(=O)O; Sar = CNCC(=O)O
Tested on: BDF1 mice, B16 melanoma ip, median survival T/C
Assay: NCI In Vivo Anticancer Drug Screen. Data for tumor model B16 Melanoma (intraperitoneal) in B6D2F1 (BDF1) mice
Conditions: endpoint: median survival time, higher = longer survival
Outline: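 The ratio T/C compares compound-treated mice with vehicle-treated controls, using survival or tumor size as the endpoint in a transplantable tumor model.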

[1] = dose: 12.5 mg/kg/injection, schedule: Q01DX009 (ip), vehicle: Klucel (hydroxypropylcellulose) (HPC)
[2] = dose: 25.0 mg/kg/injection, schedule: Q01DX009 (ip), vehicle: Klucel (hydroxypropylcellulose) (HPC)
[3] = dose: 50.0 mg/kg/injection, schedule: Q01DX009 (ip), vehicle: Klucel (hydroxypropylcellulose) (HPC)
[4] = dose: 100.0 mg/kg/injection, schedule: Q01DX009 (ip), vehicle: Klucel (hydroxypropylcellulose) (HPC)
[5] = dose: 200.0 mg/kg/injection, schedule: Q01DX009 (ip), vehicle: Klucel (hydroxypropylcellulose) (HPC)
[6] = dose: 6.25 mg/kg/injection, schedule: Q01DX009 (ip), vehicle: Klucel (hydroxypropylcellulose) (HPC)
[7] = dose: 50.0 mg/kg/injection, schedule: Q01DX009 (ip), vehicle: saline with Tween-80
[8] = dose: 100.0 mg/kg/injection, schedule: Q01DX009 (ip), vehicle: saline with Tween-80

Measured: T/C

O=c1[nH]c(=S)[nH]cc1Oc1ccc(I)cc1
inactive: [1] 90 % of control | [2] 86 % of control | [3] 91 % of control

C1CC2CCC3CCCC4CCC(C1)C2C34 (stereo not given)
inactive: dose: 3.13 mg/kg/injection, schedule: Q01DX009 (ip), vehicle: saline with Tween-80 95 % of control | dose: 6.25 mg/kg/injection, schedule: Q01DX009 (ip), vehicle: saline with Tween-80 89 % of control

Cc1c[nH]c(=O)[nH]c1=O
inactive: dose: 32.0 mg/kg/injection, schedule: Q01DX009 (ip), vehicle: Klucel (hydroxypropylcellulose) (HPC) 97 % of control and 102 % of control | dose: 32.0 mg/kg/injection, schedule: Q01DX009 (ip), vehicle: saline with Tween-80 91 % of control | dose: 64.0 mg/kg/injection, schedule: Q01DX009 (ip), vehicle: Klucel (hydroxypropylcellulose) (HPC) 97 % of control | dose: 64.0 mg/kg/injection, schedule: Q01DX009 (ip), vehicle: saline with Tween-80 100 % of control | dose: 128.0 mg/kg/injection, schedule: Q01DX009 (ip), vehicle: Klucel (hydroxypropylcellulose) (HPC) 97 % of control and 103 % of control | dose: 256.0 mg/kg/injection, schedule: Q01DX009 (ip), vehicle: Klucel (hydroxypropylcellulose) (HPC) 100 % of control and 103 % of control | dose: 512.0 mg/kg/injection, schedule: Q01DX009 (ip), vehicle: Klucel (hydroxypropylcellulose) (HPC) 98 % of control and 103 % of control | dose: 512.0 mg/kg/injection, schedule: Q01DX009 (ip), vehicle: saline with Tween-80 107 % of control

CCC[CH2][Sn]1([CH2]CCC)[O]OC2(CCCCC2)[O]1
inactive: dose: 1.25 mg/kg/injection, schedule: Q01DX009 (ip), vehicle: saline with Tween-80 113 % of control | dose: 2.5 mg/kg/injection, schedule: Q01DX009 (ip), vehicle: saline with Tween-80 100 % of control

ClC(c1ccccc1)c1ccc(Br)cc1 (stereo not given)
inactive: [3] 105 % of control | [4] 97 % of control | [5] 88 % of control

CCCCCC[C@H]([C@H](C)O)n1cnc2c(N)ncnc21
inactive: [6] 93 % of control | [1] 86 % of control | [2] 93 % of control and 94 % of control | [3] 93 % of control and 106 % of control | [4] 104 % of control

NC(=O)c1ccccc1OCc1ccccc1
inactive: dose: 75.0 mg/kg/injection, schedule: Q01DX009 (ip), vehicle: Klucel (hydroxypropylcellulose) (HPC) 100 % of control | dose: 150.0 mg/kg/injection, schedule: Q01DX009 (ip), vehicle: Klucel (hydroxypropylcellulose) (HPC) 101 % of control | dose: 300.0 mg/kg/injection, schedule: Q01DX009 (ip), vehicle: Klucel (hydroxypropylcellulose) (HPC) 101 % of control

CCC(C)C(NC=O)C(=O)O (stereo not given)
inactive: [7] 97 % of control | [8] 95 % of control | dose: 200.0 mg/kg/injection, schedule: Q01DX009 (ip), vehicle: saline with Tween-80 92 % of control | dose: 400.0 mg/kg/injection, schedule: Q01DX009 (ip), vehicle: saline with Tween-80 91 % of control

O=C(O)/C=C/C(=O)NCc1ccco1
inactive: [4] 102 % of control | [5] 86 % of control

O=C1CCCN1
inactive: dose: 100.0 mg/kg/injection, schedule: Q01DX009 (ip), vehicle: saline 100 % of control | dose: 400.0 mg/kg/injection, schedule: Q01DX009 (ip), vehicle: saline 94 % of control

Cc1cc(OC(=O)c2ccc(N(C)C)cc2)ccc1[N+](=O)[O-]
inactive: [2] 92 % of control | [3] 92 % of control | [4] 88 % of control

CCCCc1c(C)[nH]c(=S)[nH]c1=O
inactive: dose: 25.0 mg/kg/injection, schedule: Q01DX009 (ip), vehicle: saline with Tween-80 110 % of control | [7] 104 % of control | [8] 97 % of control

CC(C)C(NC(=O)CN(C)C(=O)OCc1ccccc1)C(=O)O (stereo not given) (Cbz-[Sar]-[ξV]-OH)
inactive: dose: 6.25 mg/kg/injection, schedule: Q01DX009 (ip), vehicle: saline 96 % of control | dose: 12.5 mg/kg/injection, schedule: Q01DX009 (ip), vehicle: saline 104 % of control | dose: 25.0 mg/kg/injection, schedule: Q01DX009 (ip), vehicle: saline 93 % of control | dose: 50.0 mg/kg/injection, schedule: Q01DX009 (ip), vehicle: saline 97 % of control and 101 % of control

Clc1cc(CBr)c(Cl)c(Cl)c1CBr
inactive: dose: 1.56 mg/kg/injection, schedule: Q01DX009 (ip), vehicle: Klucel (hydroxypropylcellulose) (HPC) 94 % of control | dose: 3.12 mg/kg/injection, schedule: Q01DX009 (ip), vehicle: Klucel (hydroxypropylcellulose) (HPC) 88 % of control | [6] 94 % of control | [1] 92 % of control

O=CNc1cc2ccccc2c2ccc3ccccc3c12
inactive: dose: 50.0 mg/kg/injection, schedule: Q04DX003 (ip), vehicle: Klucel (hydroxypropylcellulose) (HPC) 104 % of control | dose: 100.0 mg/kg/injection, schedule: Q04DX003 (ip), vehicle: Klucel (hydroxypropylcellulose) (HPC) 100 % of control
